Results as given in PubChem BioAssay AID1963420 (Molecular Pharmacology Branch, DTP, NCI, 2024).
“And” between values parts separate entries of the source, which are not always exact repeats. Identical values can stand only once.

Test system: 494315-158-R-J1-PDC complex spheroid growth, percent test/control
Test: Anticancer human tumor 494315-158-R-J1-PDC patient-derived soft tissue sarcoma cell line growth inhibition [Asc]
Settings: for viability, T/C: stronger effect = lower value
Summary of the method: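 Tumor cells were grown as complex spheroids with human endothelial cells (HUVEC) and human mesenchymal stem cells as stroma. Agents were tested alone and in combination, in half-log steps down from the clinical Cmax, or from 10 microM where Cmax was unknown.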
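Further: compound exposure lasted seven days after spheroids formed for three days.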

Structure (SMILES): Cc1nc(N2CCC3(CC2)COC(C)C3N)c(CO)nc1Sc1ccnc(N)c1Cl (centres undefined) + CNC(C)C(=O)NC1CN(S(=O)(=O)c2cccc(S(=O)(=O)N3CCC4CCC(C(=O)NC(c5ccccc5)c5ccccc5)N4C(=O)C(NC(=O)C(C)NC)C3)c2)CCC2CCC(C(=O)NC(c3ccccc3)c3ccccc3)N2C1=O
- IC50 (curve of first compound, second compound 0.01 µM): > 3000 nM
- IC50 (curve of first compound, second compound 0.0316 µM): > 3000 nM
- IC50 (curve of first compound, second compound 0.1 µM): 941 nM
- IC50 (curve of first compound, second compound 0.316 µM): < 9.49 nM
- IC50 (curve of first compound, second compound 1 µM): < 9.49 nM
- viability, T/C (second compound 0.01 µM, first compound 0.00949 µM): 72.2%
- viability, T/C (second compound 0.01 µM, first compound 0.03 µM): 59.6%
- viability, T/C (second compound 0.01 µM, first compound 0.0949 µM): 64.1%
- viability, T/C (second compound 0.01 µM, first compound 0.3 µM): 60.8%
- viability, T/C (second compound 0.01 µM, first compound 0.949 µM): 62.7%
- viability, T/C (second compound 0.01 µM, first compound 3 µM): 52.1%
- viability, T/C (second compound 0.0316 µM, first compound 0.00949 µM): 60.7%
- viability, T/C (second compound 0.0316 µM, first compound 0.03 µM): 69.7%
- viability, T/C (second compound 0.0316 µM, first compound 0.0949 µM): 64.3%
- viability, T/C (second compound 0.0316 µM, first compound 0.3 µM): 55.6%
- viability, T/C (second compound 0.0316 µM, first compound 0.949 µM): 60.8%
- viability, T/C (second compound 0.0316 µM, first compound 3 µM): 51%
- viability, T/C (second compound 0.1 µM, first compound 0.00949 µM): 59.7%
- viability, T/C (second compound 0.1 µM, first compound 0.03 µM): 55.6%
- viability, T/C (second compound 0.1 µM, first compound 0.0949 µM): 50.6%
- viability, T/C (second compound 0.1 µM, first compound 0.3 µM): 49.1%
- viability, T/C (second compound 0.1 µM, first compound 0.949 µM): 59.1%
- viability, T/C (second compound 0.1 µM, first compound 3 µM): 43.7%
- viability, T/C (second compound 0.316 µM, first compound 0.00949 µM): 48.3%
- viability, T/C (second compound 0.316 µM, first compound 0.03 µM): 48.6%
- viability, T/C (second compound 0.316 µM, first compound 0.0949 µM): 47.2%
- viability, T/C (second compound 0.316 µM, first compound 0.3 µM): 37.1%
- viability, T/C (second compound 0.316 µM, first compound 0.949 µM): 42.8%
- viability, T/C (second compound 0.316 µM, first compound 3 µM): 49.5%
- viability, T/C (second compound 1 µM, first compound 0.00949 µM): 38.7%
- viability, T/C (second compound 1 µM, first compound 0.03 µM): 44.2%
- viability, T/C (second compound 1 µM, first compound 0.0949 µM): 44.3%
- viability, T/C (second compound 1 µM, first compound 0.3 µM): 36.8%
- viability, T/C (second compound 1 µM, first compound 0.949 µM): 40%
- viability, T/C (second compound 1 µM, first compound 3 µM): 39.2%

Structure (SMILES): CNC(C)C(=O)NC1CN(S(=O)(=O)c2cccc(S(=O)(=O)N3CCC4CCC(C(=O)NC(c5ccccc5)c5ccccc5)N4C(=O)C(NC(=O)C(C)NC)C3)c2)CCC2CCC(C(=O)NC(c3ccccc3)c3ccccc3)N2C1=O (centres undefined)
- viability, T/C (compound 0.00316 µM): 79% and 74.7%
- viability, T/C (compound 0.01 µM): 69.1% [middle of 15 runs]
- viability, T/C (compound 0.0316 µM): 58.5% [middle of 15 runs]
- viability, T/C (compound 0.1 µM): 51.9% [middle of 15 runs]
- viability, T/C (compound 0.316 µM): 45% [middle of 15 runs]
- viability, T/C (compound 1 µM): 39.2% [middle of 15 runs]
- IC50 (curve of compound): 46.1 nM and 28.9 nM

Structure (SMILES): C=C(F)C(=O)N1CCN(c2nc(OCC3CCCN3C)nc3c2CCN(c2cccc4cccc(Cl)c24)C3)CC1CC#N (centres undefined)
- viability, T/C (compound 0.0316 µM): 89.2% and 99.6% and 84.3%
- viability, T/C (compound 0.1 µM): 92.5% and 97.5% and 96.5%
- viability, T/C (compound 0.316 µM): 88.7% and 82.5% and 97.6%
- viability, T/C (compound 1 µM): 84.9% and 84.5% and 86.7%
- viability, T/C (compound 3.16 µM): 62% and 51.7% and 68.6%
- viability, T/C (compound 10 µM): 0.23% and 0.25% and 0.24%
- IC50 (curve of compound): 3950 nM and 3360 nM and 4310 nM
